One compound from PubChem BioAssay AID652132 (Broad Institute, 2013) can be followed below.

As a reminder, the inhibition is the drop in the measured response relative to a control, in per cent.

The test system of this experiment is Signal transducer and activator of transcription 1 (STAT1), rat. In words: reduction of cytokine-raised STAT1 and pSTAT1, late-stage follow-up, mechanism study, cell-based, rat, cytokine stimulus, time course (AID 652132). The following applies: INS-1E cells, cytokine-induced STAT1/pSTAT1 western blot, at 10 µM, stronger effect = higher value. On the technique in general: A western blot detects proteins with antibodies after separation by electrophoresis.

Regarding `C[C@@H]1CN([C@@H](C)CO)C(=O)c2cccc(NC(=O)Nc3cccc4ccccc34)c2O[C@H]1CN(C)S(=O)(=O)c1ccc2c(c1)OCCO2`, the p-STAT1 inhibition, 24 h is 65%. The same compound displayed an inhibition (measured here: p-STAT1 inhibition 8 h) of 97%. Where the note is “measured here: p-STAT1 inhibition 12 h”, this compound had an inhibition of 80%. Moreover, the inhibition (measured here: total STAT1 inhibition 8 h) is 69%. The compound also registered an inhibition (measured here: total STAT1 inhibition 12 h) of 53%. Also, the inhibition (measured here: total STAT1 inhibition 24 h) is 43%.
